From PMC6028563, “Probing Substituents in the 1- and 3-Position: Tetrahydropyrazino-Annelated Water-Soluble Xanthine Derivatives as Multi-Target Drugs With Potent Adenosine Receptor Antagonistic Activity” (Frontiers in Chemistry, 2018)

What was measured:
human A2B AR = biological target: T1, human A2B AR (Homo sapiens, UniProt P29275); experiment: Radioligand binding assay at human A2B AR vs. [^3H]PSB-603; conditions: for Ki: CHO cell membranes, n = 2 (n = 3 where marked a), read-out: Ki ± SEM, A2B vs. [^3H]PSB-603; for inhibition at 1 µM: at 1,000 nM
T1 construct: expressed in transfected cells; host or cells: CHO cells
T1 sequence (P29275 1-332): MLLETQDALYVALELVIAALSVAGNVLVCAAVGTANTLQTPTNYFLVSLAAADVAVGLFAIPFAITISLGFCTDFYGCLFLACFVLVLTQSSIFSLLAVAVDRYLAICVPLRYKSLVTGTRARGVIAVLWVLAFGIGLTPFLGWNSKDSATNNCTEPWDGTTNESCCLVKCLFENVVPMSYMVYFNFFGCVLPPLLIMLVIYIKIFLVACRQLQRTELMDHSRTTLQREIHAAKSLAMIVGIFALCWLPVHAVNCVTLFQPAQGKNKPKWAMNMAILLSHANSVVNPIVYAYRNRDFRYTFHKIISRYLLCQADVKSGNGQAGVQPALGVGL
Method: (§1) Membrane preparations and radioligand binding assays at rat A1 (rat brain cortex) and rat A2A ARs (rat brain striatum) were performed as previously described (Ozola et al., [2003]; Alnouri et al., [2015]). For assays at human A1, A2A, A2B, and A3 ARs, CHO cell membranes expressing one of the human AR subtypes were used as previously reported (Klotz et al., [1998]; Alnouri et al., [2015]; De Filippo et al., [2016]).
(§2) The synthesized tetrahydropyrazino[2,1-f ]purinediones 13–20 were evaluated in radioligand binding assays for their affinity to A1 ARs of rat brain cortical membrane and to A2A ARs of rat brain striatal membrane preparations. Selected compounds were further investigated for their affinity to human A1 and A2A ARs recombinantly expressed in Chinese hamster ovary (CHO) cells. All compounds were additionally investigated for their affinity to human A2B and A3 ARs recombinantly expressed in CHO cells to determine their AR subtype selectivity. […] It is well known that all xanthine derivatives lacking a ribose moiety, including tricyclic compounds, can only block ARs, but never act as AR agonists; therefore, additional functional studies were not required. […] Potent MAO-B inhibitors were additionally investigated for inhibition of human MAO-A to assess their selectivity. Results are presented in Tables 1–6, and data of standard ligands are included for comparison.

human A3 AR = biological target: T2, human A3 AR (Homo sapiens, UniProt P0DMS8); experiment: Radioligand binding assay at human A3 AR vs. [^3H]PSB-11; conditions: for Ki: CHO cell membranes, n = 2 (n = 3 where marked a), read-out: Ki ± SEM, A3 vs. [^3H]PSB-11; for inhibition at 10 µM: at 10,000 nM, read-out: % inhibition of radioligand binding at indicated concentration, A3 vs. [^3H]PSB-11
T2 construct: expressed in transfected cells; host or cells: CHO cells
T2 sequence (P0DMS8 1-318): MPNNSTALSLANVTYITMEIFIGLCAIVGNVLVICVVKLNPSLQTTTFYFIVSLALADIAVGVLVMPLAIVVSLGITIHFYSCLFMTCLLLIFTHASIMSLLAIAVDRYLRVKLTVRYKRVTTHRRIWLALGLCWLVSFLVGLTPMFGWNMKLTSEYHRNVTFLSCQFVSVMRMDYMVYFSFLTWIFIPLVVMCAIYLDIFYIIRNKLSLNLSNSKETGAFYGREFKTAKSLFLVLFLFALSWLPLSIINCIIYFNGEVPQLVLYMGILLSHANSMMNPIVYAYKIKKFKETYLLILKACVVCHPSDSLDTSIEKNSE
Method: as §1, §2

recombinant human MAO-B = biological target: T3, recombinant human MAO-B (Homo sapiens, UniProt P27338); experiment: Monoamine oxidase assay (Amplex Red), MAO-B; assay type: biochemical; conditions: for inhibition at 10 µM: at 10,000 nM (10 μM), read-out: % inhibition at indicated concentration, Human MAO-B; for IC50: n = 3, read-out: IC50 ± SEM, Human MAO-B
T3 construct: purchased Sigma-Aldrich M7441; host or cells: baculovirus-infected insect cells
T3 sequence (P27338 1-520): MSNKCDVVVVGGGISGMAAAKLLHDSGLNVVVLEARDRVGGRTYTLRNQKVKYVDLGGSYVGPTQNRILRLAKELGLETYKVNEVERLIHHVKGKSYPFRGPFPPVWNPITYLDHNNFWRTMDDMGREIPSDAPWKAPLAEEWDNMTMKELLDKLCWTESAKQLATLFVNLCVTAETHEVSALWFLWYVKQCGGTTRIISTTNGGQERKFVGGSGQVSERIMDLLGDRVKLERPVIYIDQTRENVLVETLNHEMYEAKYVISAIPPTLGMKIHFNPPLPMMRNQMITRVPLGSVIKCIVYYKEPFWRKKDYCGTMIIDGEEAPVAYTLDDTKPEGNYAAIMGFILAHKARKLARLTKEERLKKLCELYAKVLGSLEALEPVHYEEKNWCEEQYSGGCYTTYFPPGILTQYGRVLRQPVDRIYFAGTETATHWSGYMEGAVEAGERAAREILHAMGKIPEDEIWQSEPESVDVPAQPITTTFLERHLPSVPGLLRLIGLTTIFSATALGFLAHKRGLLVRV
Method: The determination of MAO-A and MAO-B inhibition was performed using commercially available recombinant human MAO-A and MAO-B enzymes expressed in baculovirus-infected insects sells (Sigma-Aldrich, M7316 and M7441) applying the commercially available Amplex® Red monoamine oxidase assay kit (Invitrogen A12214). The assays were performed as previously described. The determination of rat MAO-B inhibition was performed using mitochondrial-enriched fractions from male Sprague Dawley rat livers. […]

rat A1 AR = biological target: T4, rat A1 AR (Rattus norvegicus, UniProt P25099); experiment: Radioligand binding assay at rat A1 AR (rat brain cortex) vs. [^3H]CCPA; conditions: rat (r); for Ki: rat brain cortex, n = 3; for inhibition at 1.5 µM: read-out: % inhibition of radioligand binding at indicated concentration, A1 vs. [^3H]CCPA, at 1,500 nM
T4 construct: A1 ARs of rat brain cortical membrane; from tissue; host or cells: rat brain cortex membranes
T4 sequence (P25099 1-326): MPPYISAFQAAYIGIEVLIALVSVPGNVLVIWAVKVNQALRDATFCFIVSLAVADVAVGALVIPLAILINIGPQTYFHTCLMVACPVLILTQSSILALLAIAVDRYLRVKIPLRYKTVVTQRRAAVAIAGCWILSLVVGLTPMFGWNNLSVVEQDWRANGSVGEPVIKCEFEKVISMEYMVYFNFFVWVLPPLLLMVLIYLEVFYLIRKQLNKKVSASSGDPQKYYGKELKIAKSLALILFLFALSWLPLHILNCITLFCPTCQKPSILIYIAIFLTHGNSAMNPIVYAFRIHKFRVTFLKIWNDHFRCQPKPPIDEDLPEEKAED
Method: as §1, §2

rat A2A AR = biological target: T5, rat A2A AR (Rattus norvegicus, UniProt P30543); experiment: Radioligand binding assay at rat A2A AR (rat brain striatum) vs. [^3H]MSX-2; conditions: rat (r); for % inhibition of radioligand binding at indicated concentration, A2A vs. [^3H]MSX-2: at 1,000 nM; for Ki: rat brain striatum, n = 3, read-out: Ki ± SEM, A2A vs. [^3H]MSX-2
T5 construct: A2A ARs of rat brain striatal membrane preparations; from tissue; host or cells: rat brain striatum membranes
Method: as §1, §2

[1] = read-out: % inhibition of radioligand binding at indicated concentration, A2B vs. [^3H]PSB-603

T5 sequence (P30543 whole entry): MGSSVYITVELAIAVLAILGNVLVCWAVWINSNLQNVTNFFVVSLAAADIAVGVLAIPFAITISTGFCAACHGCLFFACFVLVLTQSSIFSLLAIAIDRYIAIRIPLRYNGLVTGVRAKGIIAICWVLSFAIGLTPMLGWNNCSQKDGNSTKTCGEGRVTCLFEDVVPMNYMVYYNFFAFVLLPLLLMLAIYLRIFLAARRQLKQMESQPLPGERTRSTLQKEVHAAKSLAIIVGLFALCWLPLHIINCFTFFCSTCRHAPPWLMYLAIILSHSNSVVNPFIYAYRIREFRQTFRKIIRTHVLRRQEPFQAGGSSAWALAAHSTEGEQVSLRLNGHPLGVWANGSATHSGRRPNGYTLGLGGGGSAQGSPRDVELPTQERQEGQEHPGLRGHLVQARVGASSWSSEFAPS

Ki (human A2B AR) | inhibition at 1 µM (human A2B AR; [1]) | Ki (human A3 AR) | inhibition at 10 µM (human A3 AR) | inhibition at 10 µM (recombinant human MAO-B) | IC50 (recombinant human MAO-B) | Ki (rat A1 AR) | inhibition at 1.5 µM (rat A1 AR) | % inhibition of radioligand binding at indicated concentration, A2A vs. [^3H]MSX-2 (rat A2A AR) | Ki (rat A2A AR) | inhibition at 0.3 µM (human A2B AR; at 300 nM, read-out: % inhibition of radioligand binding at indicated concentration, A2B vs. [^3H]PSB-603) | inhibition at 0.1 µM (human A2B AR; at 100 nM, read-out: % inhibition of radioligand binding at indicated concentration, A2B vs. [^3H]PSB-603) | Structure (SMILES)
> 1000 nM | 8% | 4.27 µM | – | 29% | > 10 µM | 1140 nM | – | – | 1380 nM | – | – | C#CCn1c(=O)c2c(nc3n2CCN(c2ccccc2F)C3)n(CC)c1=O [Compound 20a, 1-ethyl-8-(2-fluorophenyl)-3-propargyl-6,7,8,9-tetrahydropyrazino[2,1-f]purine-2,4(1H,3H)-dione]
> 1000 nM | 8% | 3.64 µM | – | 13% | > 10 µM | 1670 nM | – | – | 1580 nM | – | – | C#CCn1c(=O)c2c(nc3n2CCN(c2ccc(OC)c(OC)c2)C3)n(CC)c1=O [Compound 20d, 8-(3,4-dimethoxyphenyl)-1-ethyl-3-propargyl-6,7,8,9-tetrahydropyrazino[2,1-f]purine-2,4(1H,3H)-dione]
> 1000 nM | 10% | > 10 µM | 22% | 25% | > 10 µM | 1600 nM | – | – | 2700 nM | – | – | C#CCn1c(=O)c2c(nc3n2CCN(CCc2ccc(OC)cc2)C3)n(CC)c1=O [Compound 20k, 1-ethyl-8-(4-methoxyphenethyl)-3-propargyl-6,7,8,9-tetrahydropyrazino[2,1-f]purine-2,4(1H,3H)-dione]
> 1000 nM | 9% | > 10 µM | 12% | 3% | > 10 µM | 3800 nM | – | – | 7400 nM | – | – | C#CCn1c(=O)c2c(nc3n2CCN(CCc2ccc(OC)c(OC)c2)C3)n(CC)c1=O [Compound 20l]

Continued, molecule first:

Structure (SMILES) | Ki (human A2B AR) | inhibition at 1 µM (human A2B AR; [1]) | Ki (human A3 AR) | inhibition at 10 µM (human A3 AR) | inhibition at 10 µM (recombinant human MAO-B) | IC50 (recombinant human MAO-B) | Ki (rat A1 AR) | inhibition at 1.5 µM (rat A1 AR) | % inhibition of radioligand binding at indicated concentration, A2A vs. [^3H]MSX-2 (rat A2A AR) | Ki (rat A2A AR) | inhibition at 0.3 µM (human A2B AR; at 300 nM, read-out: % inhibition of radioligand binding at indicated concentration, A2B vs. [^3H]PSB-603) | inhibition at 0.1 µM (human A2B AR; at 100 nM, read-out: % inhibition of radioligand binding at indicated concentration, A2B vs. [^3H]PSB-603)
Cn1c(=O)[nH]c(=O)c2c1nc1n2CCN(Cc2cccc(C(F)(F)F)c2)C1 [Compound 13b, 1-methyl-8-(3-(trifluoromethyl)benzyl)-6,7,8,9-tetrahydropyrazino[2,1-f]purine-2,4(1H,3H)-dione] | > 1000 nM | 2% | > 10 µM | 35% | 14% | > 10 µM | > 1500 nM | -1% | 5% | > 1000 nM | – | –
Cn1c(=O)[nH]c(=O)c2c1nc1n2CCN(CCc2cccc(Cl)c2)C1 [Compound 13c, 8-(3-chlorophenethyl)-1-methyl-6,7,8,9-tetrahydropyrazino[2,1-f]purine-2,4(1H,3H)-dione] | > 1000 nM | 18% | > 10 µM | 49% | 54% | ~10 µM | > 1500 nM | 3% | 1% | > 1000 nM | – | –
Cn1c(=O)[nH]c(=O)c2c1nc1n2CCN(CCc2cccc(Br)c2)C1 [Compound 13d, 8-(3-bromophenethyl)-1-methyl-6,7,8,9-tetrahydropyrazino[2,1-f]purine-2,4(1H,3H)-dione] | > 1000 nM | 1% | ~10 µM | 45% | – | – | > 1500 nM | 1% | 15% | > 1000 nM | – | –
Cn1c(=O)[nH]c(=O)c2c1nc1n2CCN(CCc2cccc(C(F)(F)F)c2)C1 [Compound 13e, 1-methyl-8-(3-(trifluoromethyl)phenethyl)-6,7,8,9-tetrahydropyrazino[2,1-f]purine-2,4(1H,3H)-dione] | > 300 nM | – | > 10 µM | 39% | 47% | ~10 µM | > 1500 nM | 9% | 4% | > 1000 nM | 8% | –
CCn1c(=O)c2c(nc3n2CCN(Cc2ccc(C(F)(F)F)cc2)C3)n(C)c1=O [Compound 14f, 3-ethyl-1-methyl-8-(4-(trifluoromethyl)benzyl)-6,7,8,9-tetrahydropyrazino[2,1-f]purine-2,4(1H,3H)-dione] | > 100 nM | – | 18.6 µM | – | 32% | > 10 µM | > 1500 nM | 9% | 7% | > 1000 nM | – | 1%
CCn1c(=O)c2c(nc3n2CCN(Cc2ccc(Cl)cc2C(F)(F)F)C3)n(CC)c1=O [Compound 15o, 8-(4-chloro-2-(trifluoromethyl)benzyl)-1,3-diethyl-6,7,8,9-tetrahydropyrazino[2,1-f]purine-2,4(1H,3H)-dione] | > 1000 nM | 16% | 1.69 µM | – | 5% | > 10 µM | > 1500 nM | 41% | 19% | > 1000 nM | – | –
CCn1c(=O)c2c(nc3n2CCN(Cc2cc(C(F)(F)F)cc(C(F)(F)F)c2)C3)n(CC)c1=O [Compound 15q, 8-(3,5-bis(trifluoromethyl)benzyl)-1,3-diethyl-6,7,8,9-tetrahydropyrazino[2,1-f]purine-2,4(1H,3H)-dione] | > 1000 nM | 7% | > 10 µM | 40% | 27% | > 10 µM | > 1500 nM | 6% | 13% | > 1000 nM | – | –
